Tests used:
Assay in all cases: Test F preemergence test
bermudagrass = assay type: in vivo, Cynodon dactylon; settings: scale 0 to 100
Outline: (§1)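 Compound in a non-phytotoxic solvent blend with surfactant is applied preemergence to planted seeds or postemergence to sugarcane plants. Plants and controls stay in the greenhouse 14 to 21 days before visual comparison.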

kochia = assay type: in vivo, Kochia scoparia; settings: scale 0 to 100
Outline: as §1

pitted morningglory = assay type: in vivo, Ipomoea lacunosa; settings: 16 g ai/ha, preemergence; scale 0 to 100
Outline: as §1

purple nutsedge = assay type: in vivo, Cyperus rotundus; settings: scale 0 to 100
Outline: as §1

mustard = assay type: in vivo, Brassica nigra; settings: scale 0 to 100
Outline: as §1

guineagrass = assay type: in vivo, Panicum maximum; settings: scale 0 to 100
Outline: as §1

dallisgrass = assay type: in vivo, Paspalum dilatatum; settings: scale 0 to 100
Outline: as §1

barnyardgrass = assay type: in vivo, Echinochloa crus-galli
Outline: as §1

prickly sida = assay type: in vivo, Sida spinosa; settings: scale 0 to 100
Outline: as §1

common purslane = assay type: in vivo, Portulaca oleracea; settings: scale 0 to 100
Outline: as §1

broadleaf signalgrass = assay type: in vivo, Brachiaria platyphylla; settings: scale 0 to 100; for Signalgrass plant response rating: 125 g ai/ha
Outline: as §1

common groundsel = assay type: in vivo, Senecio vulgaris; settings: scale 0 to 100
Outline: as §1

annual bluegrass = assay type: in vivo, Poa annua; settings: scale 0 to 100
Outline: as §1

naked crabgrass = assay type: in vivo, Digitaria nuda; settings: scale 0 to 100
Outline: as §1

quackgrass = assay type: in vivo, Elytrigia repens; settings: scale 0 to 100
Outline: as §1

Canada horseweed = assay type: in vivo, Conyza canadensis; settings: scale 0 to 100
Text: Seeds of plant species selected from bermudagrass (Cynodon dactylon), Surinam grass (Brachiaria decumbens), large crabgrass (Digitaria sanguinalis), green foxtail (Setaria viridis), goosegrass (Eleusine indica), johnsongrass (Sorghum halepense), kochia (Kochia scoparia), pitted morningglory (Ipomoea lacunosa), purple nutsedge (Cyperus rotundus), common ragweed (Ambrosia elation), mustard (Brassica nigra), guineagrass (Panicum maximum), […] (Paspalum dilatatum), barnyardgrass (Echinochloa crus-galli), southern sandbur (Cenchrus echinatus), common sowthistle (Sonchus oleraceous), prickly […] spinosa), Italian ryegrass (Lolium multiflorum), common purslane (Portulaca oleracea), broadleaf signalgrass (Brachiaria platyphylla), common groundsel (Senecio vulgaris), common chickweed (Stellaria media), Virginia dayflower (Commelina virginica), annual bluegrass (Poa annua), naked crabgrass (Digitaria nuda), […] cochinchinensis), quackgrass (Elytrigia repens), Canada horseweed (Conyza canadensis), field bindweed (Convolvulus arvensis), […] (Bidens bipinnata), common mallow (Malva sylvestris), Russian thistle (Salsola kali), and sugarcane (Saccharum officinarum) were planted and treated preemergence with test chemicals formulated in a non-phytotoxic solvent mixture which included a surfactant. At a different time, sugarcane was treated with postemergence applications of some of the test chemicals formulated in the same manner. Plants were approximately 3- to 4-leaf stage for the postemergence treatments. Treated plants and controls were maintained in a greenhouse for 14 to 21 days, after which time all species were compared to controls and visually evaluated. […] A dash (-) response means no test result.

common mallow = assay type: in vivo, Malva sylvestris; settings: scale 0 to 100
Outline: as §1

[1] = 16 g ai/ha, preemergence, scale 0 to 100 (0 no effect, 100 complete control)
[2] = 125 g ai/ha, preemergence, scale 0 to 100
[3] = Preemergence, 31 g ai/ha, scale 0 to 100

Cn1nc(C(F)(F)F)c(C[S+]([O-])c2ccc(Cl)c[n+]2[O-])c1OCC(F)F (stereo not drawn) [Compound 85]
40: Plant response rating, Black Mustard (mustard; 16 g ai/ha, preemergence) | Plant response rating, Black Mustard (mustard; Preemergence, 62 g ai/ha) | Plant response rating, Black Mustard (mustard; Preemergence, 31 g ai/ha) | Plant response rating, Prickly Sida (prickly sida; Preemergence, 62 g ai/ha)
100: Kochia plant response rating (kochia; 125 g ai/ha, preemergence) | Plant response rating, Kochia (kochia; Preemergence, 62 g ai/ha) | Guineagrass plant response rating (guineagrass; 125 g ai/ha, preemergence) | Barnyardgrass plant response rating (barnyardgrass; [2]) | Bluegrass plant response rating (annual bluegrass; 125 g ai/ha, preemergence) | Horseweed plant response rating (Canada horseweed; 125 g ai/ha, preemergence) | Plant response rating, Horseweed (Canada horseweed; Preemergence, 62 g ai/ha) | Plant response rating, Horseweed (Canada horseweed; Preemergence, 31 g ai/ha)
85: Plant response rating, Dallisgrass (dallisgrass; Preemergence, 62 g ai/ha)
95: Bermudagrass plant response rating (bermudagrass; 125 g ai/ha, preemergence) | Plant response rating, Bluegrass (annual bluegrass; Preemergence, 62 g ai/ha) | Plant response rating, Bluegrass (annual bluegrass; Preemergence, 31 g ai/ha) | Crabgrass, Naked plant response rating (naked crabgrass; 125 g ai/ha, preemergence) | Quackgrass plant response rating (quackgrass; 125 g ai/ha, preemergence)
80: Plant response rating, Bermudagrass (bermudagrass; Preemergence, 62 g ai/ha) | Plant response rating, Barnyardgrass (barnyardgrass; [3]) | Signalgrass plant response rating (broadleaf signalgrass; preemergence) | Plant response rating, Crabgrass, Naked (naked crabgrass; Preemergence, 31 g ai/ha) | Plant response rating, Quackgrass (quackgrass; Preemergence, 62 g ai/ha)
90: Plant response rating, Barnyardgrass (barnyardgrass; Preemergence, 62 g ai/ha, scale 0 to 100) | Plant response rating, Crabgrass, Naked (naked crabgrass; Preemergence, 62 g ai/ha)
75: Plant response rating, Dallisgrass (dallisgrass; Preemergence, 31 g ai/ha) | Plant response rating, Bluegrass (annual bluegrass; 16 g ai/ha, preemergence) | Plant response rating, Crabgrass, Naked (naked crabgrass; 16 g ai/ha, preemergence)
65: Purple Nutsedge plant response rating (purple nutsedge; 125 g ai/ha, preemergence) | Groundsel plant response rating (common groundsel; 125 g ai/ha, preemergence) | Plant response rating, Quackgrass (quackgrass; Preemergence, 31 g ai/ha)
15: Plant response rating, Dallisgrass (dallisgrass; 16 g ai/ha, preemergence)
98: Plant response rating, Guineagrass (guineagrass; Preemergence, 62 g ai/ha) | Plant response rating, Guineagrass (guineagrass; Preemergence, 31 g ai/ha) | Dallisgrass plant response rating (dallisgrass; 125 g ai/ha, preemergence) | Mallow plant response rating (common mallow; 125 g ai/ha, preemergence) | Plant response rating, Mallow (common mallow; Preemergence, 62 g ai/ha)
25: Plant response rating, Kochia (kochia; Preemergence, 31 g ai/ha) | Plant response rating, Purslane (common purslane; Preemergence, 31 g ai/ha) | Plant response rating, Horseweed (Canada horseweed; 16 g ai/ha, preemergence)
20: Plant response rating, Bermudagrass (bermudagrass; 16 g ai/ha, preemergence) | Plant response rating, Prickly Sida (prickly sida; Preemergence, 31 g ai/ha) | Plant response rating, Quackgrass (quackgrass; 16 g ai/ha, preemergence)
0: Plant response rating, Morningglory (pitted morningglory) | Plant response rating, Purple Nutsedge (purple nutsedge; 16 g ai/ha, preemergence) | Plant response rating, Purple Nutsedge (purple nutsedge; Preemergence, 31 g ai/ha) | Plant response rating, Prickly Sida (prickly sida; 16 g ai/ha, preemergence) | Plant response rating, Purslane (common purslane; 16 g ai/ha, preemergence) | Plant response rating, Groundsel (common groundsel; 16 g ai/ha, preemergence) | Plant response rating, Groundsel (common groundsel; Preemergence, 62 g ai/ha) | Plant response rating, Groundsel (common groundsel; Preemergence, 31 g ai/ha) | Plant response rating, Mallow (common mallow; 16 g ai/ha, preemergence)
60: Plant response rating, Bermudagrass (bermudagrass; Preemergence, 31 g ai/ha) | Black Mustard plant response rating (mustard; 125 g ai/ha, preemergence) | Prickly Sida plant response rating (prickly sida; 125 g ai/ha, preemergence) | Purslane plant response rating (common purslane; 125 g ai/ha, preemergence) | Plant response rating, Purslane (common purslane; Preemergence, 62 g ai/ha) | Plant response rating, Signalgrass (broadleaf signalgrass; 16 g ai/ha, preemergence)
70: Plant response rating, Signalgrass (broadleaf signalgrass; Preemergence, 62 g ai/ha) | Plant response rating, Signalgrass (broadleaf signalgrass; Preemergence, 31 g ai/ha)
50: Plant response rating, Purple Nutsedge (purple nutsedge; Preemergence, 62 g ai/ha) | Plant response rating, Guineagrass (guineagrass; 16 g ai/ha, preemergence) | Plant response rating, Barnyardgrass (barnyardgrass; [1]) | Plant response rating, Mallow (common mallow; Preemergence, 31 g ai/ha)

Cn1nc(OC(F)F)c(CS(=O)(=O)c2cccc[n+]2[O-])c1C(F)(F)F [Compound 80]
95: Dallisgrass plant response rating (dallisgrass; 62 g ai/ha, Preemergence) | Barnyardgrass plant response rating (barnyardgrass; 62 g ai/ha, Preemergence, scale 0 to 100) | Bluegrass plant response rating (annual bluegrass; 125 g ai/ha, preemergence)
40: Plant response rating, Dallisgrass (dallisgrass; 16 g ai/ha, preemergence)
0: Plant response rating, Kochia (kochia; 16 g ai/ha, preemergence) | Plant response rating, Kochia (kochia; Preemergence, 31 g ai/ha) | Plant response rating, Purple Nutsedge (purple nutsedge; 16 g ai/ha, preemergence) | Plant response rating, Black Mustard (mustard; 16 g ai/ha, preemergence) | Black Mustard plant response rating (mustard; 62 g ai/ha, Preemergence) | Plant response rating, Black Mustard (mustard; Preemergence, 31 g ai/ha) | Plant response rating, Prickly Sida (prickly sida; 16 g ai/ha, preemergence) | Prickly Sida plant response rating (prickly sida; 62 g ai/ha, Preemergence) | Plant response rating, Prickly Sida (prickly sida; Preemergence, 31 g ai/ha) | Plant response rating, Purslane (common purslane; 16 g ai/ha, preemergence) | Purslane plant response rating (common purslane; 62 g ai/ha, Preemergence) | Purslane plant response rating (common purslane; 125 g ai/ha, preemergence) | Plant response rating, Purslane (common purslane; Preemergence, 31 g ai/ha) | Groundsel plant response rating (common groundsel; 62 g ai/ha, Preemergence) | Plant response rating, Groundsel (common groundsel; Preemergence, 31 g ai/ha) | Plant response rating, Crabgrass, Naked (naked crabgrass; 16 g ai/ha, preemergence) | Plant response rating, Horseweed (Canada horseweed; 16 g ai/ha, preemergence) | Plant response rating, Horseweed (Canada horseweed; Preemergence, 31 g ai/ha) | Plant response rating, Mallow (common mallow; 16 g ai/ha, preemergence) | Mallow plant response rating (common mallow; 62 g ai/ha, Preemergence) | Plant response rating, Mallow (common mallow; Preemergence, 31 g ai/ha)
100: Guineagrass plant response rating (guineagrass; 125 g ai/ha, preemergence) | Dallisgrass plant response rating (dallisgrass; 125 g ai/ha, preemergence) | Barnyardgrass plant response rating (barnyardgrass; [2]) | Crabgrass, Naked plant response rating (naked crabgrass; 125 g ai/ha, preemergence) | Horseweed plant response rating (Canada horseweed; 62 g ai/ha, Preemergence) | Horseweed plant response rating (Canada horseweed; 125 g ai/ha, preemergence)
80: Plant response rating, Bermudagrass (bermudagrass; Preemergence, 31 g ai/ha) | Purple Nutsedge plant response rating (purple nutsedge; 125 g ai/ha, preemergence) | Plant response rating, Dallisgrass (dallisgrass; Preemergence, 31 g ai/ha)
85: Plant response rating, Barnyardgrass (barnyardgrass; [1])
20: Prickly Sida plant response rating (prickly sida; 125 g ai/ha, preemergence)
50: Plant response rating, Bermudagrass (bermudagrass; 16 g ai/ha, preemergence) | Purple Nutsedge plant response rating (purple nutsedge; 62 g ai/ha, Preemergence) | Black Mustard plant response rating (mustard; 125 g ai/ha, preemergence) | Groundsel plant response rating (common groundsel; 125 g ai/ha, preemergence)
25: Plant response rating, Signalgrass (broadleaf signalgrass; 16 g ai/ha, preemergence) | Plant response rating, Signalgrass (broadleaf signalgrass; Preemergence, 31 g ai/ha) | Plant response rating, Bluegrass (annual bluegrass; 16 g ai/ha, preemergence) | Plant response rating, Bluegrass (annual bluegrass; Preemergence, 31 g ai/ha)
10: Plant response rating, Quackgrass (quackgrass; 16 g ai/ha, preemergence)
75: Plant response rating, Guineagrass (guineagrass; 16 g ai/ha, preemergence) | Plant response rating, Signalgrass (broadleaf signalgrass; Preemergence, 62 g ai/ha) | Plant response rating, Crabgrass, Naked (naked crabgrass; Preemergence, 31 g ai/ha) | Quackgrass plant response rating (quackgrass; 125 g ai/ha, preemergence)
98: Bermudagrass plant response rating (bermudagrass; 125 g ai/ha, preemergence) | Guineagrass plant response rating (guineagrass; 62 g ai/ha, Preemergence) | Plant response rating, Guineagrass (guineagrass; Preemergence, 31 g ai/ha) | Signalgrass plant response rating (broadleaf signalgrass; preemergence)
35: Kochia plant response rating (kochia; 62 g ai/ha, Preemergence)
65: Quackgrass plant response rating (quackgrass; 62 g ai/ha, Preemergence) | Plant response rating, Quackgrass (quackgrass; Preemergence, 31 g ai/ha) | Mallow plant response rating (common mallow; 125 g ai/ha, preemergence)
90: Bermudagrass plant response rating (bermudagrass; 62 g ai/ha, Preemergence) | Kochia plant response rating (kochia; 125 g ai/ha, preemergence) | Plant response rating, Barnyardgrass (barnyardgrass; [3]) | Bluegrass plant response rating (annual bluegrass; 62 g ai/ha, Preemergence) | Crabgrass, Naked plant response rating (naked crabgrass; 62 g ai/ha, Preemergence)

— patent US20100298141A1, “SUBSTITUTED PYRIDINE N-OXIDE HERBICIDES” (E. I. DU PONT DE NEMOURS AND COMPANY, priority 2007, published 2010)
